Read-outs that look alike come from different tables or passages of the source.
What was measured:
Format in all cases: cell-based, hepatitis C virus
[1] = test system: HCV JFH1 strain; conditions: for Promotion ratio (HCV particle production-promoting effect): added after HCV adsorption, 46 h culture, Huh7-it cells, moi=0.1, control (DMSO) = 1.0
Procedure: In this example, the purified lovastatin solution “B15.4.1” (FIG. 1) of Example 1 was used as the “HCV particle formation promoter.” A lovastatin solution prepared by adding a culture medium to the HCV particle formation promoter to adjust each lovastatin concentration at the time of virus inoculation and at the time of culture to from 1.25 to 20 μg/ml was used in the following.
In this example, Huh7-it cells, a highly HCV-permissive cell line derived from Huh7 cells, were used as culture cells. The medium used was Dulbecco's modified Eagle's medium supplemented with 10% fetal calf serum, non-essential amino acids, penicillin, and streptomycin, and the cells were cultured using a 48-well culture plate.
A HCV stock solution to be used to promote formation of HCV particles was prepared by the following method. The HCV strain used was JFH1 strain (genome sequence: GenBank accession number AB047639). RNA having the same sequence as that of the full genome of the HCV JFH1 strain was introduced (transfected) into Huh7-it cells by an electroporation method (van den Hoff M J et al., Nucleic Acids Res., 20:2902, 1992), and the culture supernatant 72 hours after the introduction was collected. The collected culture supernatant was passed through a 0.45-μm filter (Millipore) to remove contaminants, and then added to other Huh7-it cells. An infectivity titer was calculated by measuring the number of HCV-infected cells after 72 hours by a focus method, and a solution adjusted to have an infectivity titer of 5.4×10^4 infectious units/ml was used as the HCV stock solution. The infectivity titer to prepare the HCV stock solution was calculated by an immunostaining method. An anti-HCV-core (clone CP14) monoclonal antibody was used as a primary antibody, and a HRP-labeled goat anti-mouse antibody was used as a labeling antibody. Konica Immunostain HRP-1000 (Konica Minolta) was added, and the number of virus antigen-positive cell populations stained in blue (immunofocus; also called focus) was measured under a microscope. Thus, the infectivity titer was calculated.
A mixture of the HCV stock solution (5.4×10^4 infectious units/ml) prepared in the above-mentioned section 3) and the HCV particle formation promoter was inoculated into culture cells, and the virus was adsorbed to the cells at 37° C. for 2 hours. Then, the virus liquid was removed, and the cells were washed three times with a culture medium. After that, in the same manner as described above, the cells were cultured for […] with the addition of the HCV particle formation promoter (lovastatin concentration: 1.25 to 20 μg/ml). The virus was inoculated into the culture cells so that the multiplicity of infection (moi) was 0.1.
To confirm a virus-producing ability, the culture medium of the infected cells was centrifuged at 10,000 rpm for 3 minutes, and the centrifugation supernatant was used as a sample liquid. The sample liquid was inoculated into non-HCV-infected Huh7-it cells. […] The number of staining-positive cells was measured, and the HCV infectivity titer was measured.
In this example, the crude lovastatin solution “B15” (FIG. 1) of Example 1 was used as the “HCV particle formation promoter.” A lovastatin solution prepared by adding a culture medium to the HCV particle formation promoter to adjust each lovastatin concentration at the time of virus inoculation and at the time of culture to from 1 to 50 μg/ml was used in the following.
In this example, HCV was inoculated into culture cells to achieve moi=0.1 as in Example 2, and the HCV particle formation promoter was added at the following timings i) to iii).
A mixture of HCV and the HCV particle formation promoter was inoculated into culture cells, and the virus was adsorbed to the cells at 37° C. for 2 hours. Then, the virus liquid was removed, and the cells were washed three times with a culture medium. After that, the cells were cultured for 46 hours with the addition of the HCV particle formation promoter containing lovastatin. […]

[2] = test system: HCV protein (antigen); assay: Intracellular HCV protein (antigen) synthesis by immunostaining in Huh7-it cells; conditions: Example 6, 20 μg/ml lovastatin, versus DMSO control (FIG. 7)
[3] = test system: HCV JFH1 strain; assay: Intracellular HCV infectivity titer in Huh7-it cells (freeze-thawing method); conditions: Example 5; 20 μg/ml lovastatin, from adsorption to 48 h after infection; versus DMSO control (FIG. 5)
Procedure: In this example, culture cells were prepared in the same manner as in Example 2 to confirm the influence on the HCV infectivity titer inside and outside Huh7-it cells in adding the HCV particle formation promoter to the cells over a period of from during HCV adsorption to 48 hours after HCV infection. In this example, the purified lovastatin solution “B15.4.1” (FIG. 1) of Example 1 was used as the HCV particle formation promoter. A lovastatin solution prepared by adding a culture medium to the HCV particle formation promoter to adjust each lovastatin concentration at the time of virus inoculation and at the time of culture to 20 μg/ml was used in the following. A system containing dimethylsulfoxide (DMSO) in place of the HCV particle formation promoter was used as a control.
A sample to measure an extracellular HCV infectivity titer was prepared in the same manner as in Example 2. A sample to measure an intracellular HCV infectivity titer was prepared by a freeze-thawing method. First, infected cells were washed with PBS and then detached by trypsin/EDTA treatment, followed by centrifugation to collect a cell pellet. The cell pellet was washed once with PBS, suspended in 0.5 ml of a culture medium, and freeze-thawed at −80° C. three times repeatedly, followed by centrifugation at 12,000 rpm for 5 minutes. […] Each sample was measured for its virus titer in the same manner as in Example 2.

[4] = test system: HCV RNA; assay: Intracellular HCV RNA copy number by quantitative RT-PCR in Huh7-it cells; conditions: Example 6; 20 μg/ml lovastatin; days 1, 2, 3 and 4 after infection; versus DMSO control (FIG. 6)
Procedure: In this example, culture cells were prepared in the same manner as in Example 2 to confirm the influence on the HCV RNA copy number in the culture cells on days 1, 2, 3, and 4 after HCV infection in adding the HCV particle formation promoter to Huh7-it cells over a period of from during HCV adsorption to 48 hours after HCV infection. In this example, the purified lovastatin solution “B15.4.1” (FIG. 1) of Example 1 was used as the HCV particle formation promoter. A lovastatin solution prepared by adding a culture medium to the HCV particle formation promoter to adjust each lovastatin concentration at the time of virus inoculation and at the time of culture to 20 μg/ml was used in the following. A system containing DMSO in place of the HCV particle formation promoter was used as a control.
A sample to measure an intracellular HCV RNA copy was prepared in the same manner as in Example 5. Total RNA was extracted from infected cells using Trizol®/Trizol®-LS (Invitrogen). cDNA was synthesized from the total RNA by performing a reverse transcription reaction at 37° C. for 15 minutes and an enzyme inactivation reaction at 98° C. for 5 minutes through the use of a ReverTra Ace® qPCR-Kit (Toyobo). The HCV RNA copy number was measured by a quantitative RT-PCR method using a LightCycler® 480 real-time PCR system. […]

[5] = test system: HCV JFH1 strain; conditions: added after HCV adsorption, 46 h culture, Huh7-it cells, moi=0.1, control (DMSO) = 1.0

`CC(C)c1c(C(=O)Nc2ccccc2)c(-c2ccccc2)c(-c2ccc(F)cc2)n1CC[C@@H](O)C[C@@H](O)CC(=O)O` [Atorvastatin, calcium (3R,5R)-7-[2-(4-fluorophenyl)-5-isopropyl-3-phenyl-4-[(phenylamino)carbonyl]-1H-pyrrol-1-yl]-3,5-dihydroxyheptanoate] was tested, and the “Promotion ratio (HCV particle production-promoting effect)” value (“Promotion ratio” below) ([1]; 1.25 μg/ml) was 0.9, the “Promotion ratio” value ([1]; 2.5 μg/ml) was 4.3 and the “Promotion ratio” value ([1]; 5.0 μg/ml) was 9.4. For the same compound, the “Promotion ratio” value ([1]; 20.0 μg/ml) was 9.7.
For `CC[C@H](C)C(=O)O[C@H]1C[C@@H](C)C=C2C=C[C@H](C)[C@H](CC[C@@H]3C[C@@H](O)CC(=O)O3)[C@H]21` [B15.4.1], the HCV infectivity titer ([1]; Example 2, 5 to 20 μg/ml of lovastatin, during adsorption and 48 h culture, Huh7-it cells (FIG. 2)) was “high HCV infectivity titer was found in a lovastatin concentration-dependent manner”, the virus infectivity titer ([1]; Example 4, 20 μg/ml lovastatin, added after HCV adsorption (with or without presence during adsorption), 46 h culture (FIG. 4)) was “high virus infectivity titer was found” and the “intracellular HCV protein (antigen) synthesis amount” value [2] was “not affected”. For the same compound, the “intracellular HCV particle-producing ability versus control” value [3] was “substantially no difference” and the “intracellular HCV RNA replication amount” value [4] was “not affected”.
With `CC(C)n1c(/C=C/[C@@H](O)C[C@@H](O)CC(=O)[O-])c(-c2ccc(F)cc2)c2ccccc21.[Na+]` [Fluvastatin, sodium (3R,5S,6E)-7-[3-(4-fluorophenyl)-1-(1-methylethyl)-1H-indol-2-yl]-3,5-dihydroxy-6-heptenoate] the “Promotion ratio” value ([1]; 1.25 μg/ml) was 9.2, the “Promotion ratio” value ([1]; 2.5 μg/ml) was 14.3 and the “Promotion ratio” value ([1]; 5.0 μg/ml) was 15.2. For the same compound, the “Promotion ratio” value ([1]; 20.0 μg/ml) was 7.9.
`CC[C@H](C)C(=O)O[C@H]1C[C@@H](C)C=C2C=C[C@H](C)[C@H](CC[C@@H]3C[C@@H](O)CC(=O)O3)[C@H]21` [Lovastatin, (1S,3R,7S,8S,8aR)-8-[2-((2R,4R)-4-hydroxy-6-oxotetrahydro-2H-pyran-2-yl)ethyl]-3,7-dimethyl-1,2,3,7,8,8a-hexahydro-1-naphthyl] was tested, and the “Promotion ratio” value ([1]; 1.25 μg/ml) was 0.8, the “Promotion ratio” value ([1]; 2.5 μg/ml) was 3.5 and the “Promotion ratio” value ([1]; 5.0 μg/ml) was 6.1. The “Promotion ratio” value ([1]; 20.0 μg/ml) was 11.1.
In the case of `CC[C@H](C)C(=O)O[C@H]1C[C@H](O)C=C2C=C[C@H](C)[C@H](CC[C@@H](O)C[C@@H](O)CC(=O)O)[C@H]21` [Pravastatin, (1S,βR,δR,8aβ)-1,2,6,7,8,8a-hexahydro-β,δ,6β-trihydroxy-2β-methyl-8α-[(S)-2-methyl-1-oxobutoxy]-1β-naphthaleneheptanoate], the “Promotion ratio” value ([5]; 80.0 μg/ml) is reported as 17.2, the “Promotion ratio” value ([5]; 200.0 μg/ml) is reported as 24.7 and the “Promotion ratio” value ([1]; 5.0 μg/ml) is reported as 0.6. For the same compound, the “Promotion ratio” value ([1]; 20.0 μg/ml) was 2.7.
In the case of `CCC(C)(C)C(=O)O[C@H]1C[C@@H](C)C=C2C=C[C@H](C)[C@H](CC[C@@H]3C[C@@H](O)CC(=O)O3)[C@H]21` [Simvastatin, (1S,3R,7S,8S,8aR)-8-[2-[(2R,4R)-4-hydroxy-6-oxotetrahydropyran-2-yl]ethyl]-3,7-dimethyl-1,2,3,7,8,8a-hexahydro-1-naphthyl], the “Promotion ratio” value ([1]; 1.25 μg/ml) is reported as 8.5, the “Promotion ratio” value ([1]; 2.5 μg/ml) is reported as 14.8 and the “Promotion ratio” value ([1]; 5.0 μg/ml) is reported as 19.5. The “Promotion ratio” value ([1]; 20.0 μg/ml) was 4.1.

From patent US20150258189A1, “HEPATITIS C VIRUS PARTICLES FORMATION PROMOTER, AND METHOD OF PRODUCING HEPATITIS C VIRUS PARTICLES” (priority 2012, published 2015)
